# According to patent US8445441B2, “Inhibitors of BCL-2” (Case Western Reserve University, priority 2007, dated 2013):
# What was measured:
# [1] = molecular target: Bcl-2-IP3R interaction (Homo sapiens, UniProt P10415); test: coimmunoprecipitation of Bcl-2 with IP3R from cell extracts; format: binding; set-up: expressed in transfected cells; host or cells: Bcl-2(+) WEHI7.2 cells; also Jurkat cells (endogenous Bcl-2); settings: 400 μM peptide; Bcl-2(+) WEHI7.2 and Jurkat cell extracts
# Experimental: FIG. 4 illustrates an IP3R Peptide Inhibits Bcl-2-IP3R Interaction but Not Bim-Bcl-2 Interaction. (A and D) IP3R was immunoprecipitated from extracts of Bcl-2(+) WEHI7.2 cells (C) or Jurkat cells in the presence of 400 μM peptides. Peptide 2, but not peptide 1 or control peptide, inhibited the Bcl-2-IP3R coimmunoprecipitation. Summary of Bcl-2 immunoblot signal intensities in three […] experiments identical to (C) (mean±SEM). (B) Bcl-2 was immunoprecipitated from Bcl-2(+) WEHI7.2 cell extracts in the presence of 400 μM peptides, and coimmunoprecipitation of Bim was detected by anti-Bim immunoblotting. […] (E) Summary of Bim immunoblot signal intensities in three experiments identical to (B) (mean±SEM).
# Since the IP3R binding region was narrowed down to the 80 amino acid subdomain 3a1 (aa 1347-1426), we designed two 20 amino acid peptides (peptide 1, aa 1365-1384 (SEQ ID NO:2); peptide 2, aa 1389-1408 (SEQ ID NO:3)) based on the degree of homology in this region among different IP3R isoforms. […] The inhibitory effect of peptide 2 on Bcl-2-IP3R interaction was also detected in coimmunoprecipitation assays employing both Bcl-2(+) WEHI7.2 cells (FIGS. 4A and 4B) and Jurkat cells (FIG. 4C). […]
# [2] = test system: IP3R type 1 channel; test: single IP3R channel activity in planar lipid bilayers; format: biochemical; settings: 2 μM IP3, 250 nM Ca2+
# Experimental: FIG. 5 illustrates a summary of multiple experiments (mean±SEM) measuring effects of Bcl-2 and peptides on IP3R channel open probability. n=number of individual channels examined. Symbols represent mean±SEM. *p<0.05.
# The effects of peptide 2 and purified Bcl-2 on IP3R channel activity were analyzed in planar lipid bilayers under steady-state conditions. Single IP3R type 1 channel activity was visualized as a series of discrete positive current fluctuations in the presence of 2 μM IP3 and 250 nM Ca^2+ in the cis compartment (cytoplasmic side of channel). A significant reduction in single channel activity was observed after adding 0.1 μM purified Bcl-2 to the cytoplasmic face of the IP3R channel, and addition of 10 μM peptide 2 reversed Bcl-2's inhibitory effect on channel activity. Average open probabilities under various conditions were calculated from multiple repeated experiments (FIG. 5). Addition of Bcl-2 reduced IP3R open probability by 11.5-fold to 0.018.
# [3] = test system: WEHI7.2 cells; test: anti-CD3-induced Ca2+ elevation by digital imaging; format: cell-based; settings: 60 μM peptide with Chariot reagent
# Experimental: (§1) FIGS. 6A-D illustrates peptide 2 (SEQ ID NO:3) Reverses Bcl-2's Inhibition of Anti-CD3-Induced Ca^2+Elevation. (A) Representative Ca^2+ traces (each the mean of ˜65 cells) recording anti-CD3 (arrow, time of addition)-induced Ca^2+ elevation in Bcl-2(+) WEHI7.2 cells. Peptide (60 μM) uptake was facilitated by Chariot reagent. (B) Peak anti-CD3 induced Ca^2+ elevation in Bcl-2(−) and Bcl-2(+) WEHI7.2 cells treated with peptides as in (A) [mean±SEM, five experiments for Bcl-2(−) and seven experiments for Bcl-2(+) cells, with mean 68 cells per sample per experiment]. (C) Representative Ca^2+ traces in Jurkat cells (mean 85 cells each). Treatment conditions are the same as in (A), except that a control involving addition of peptide 2 without Chariot reagent has been added. (D) Peak anti-CD3-induced Ca^2+ elevation in Jurkat cells treated with peptides as in (C) (mean±SEM, seven experiments, mean 81 cells per sample per experiment).
# (§2) Next we investigated whether peptide 2 also reverses Bcl-2's inhibitory effect on Ca^2+ release through the IP3R in Bcl-2(+) and (−) WEHI7.2 clones, newly derived WEHI7.2 mixed populations exogenously expressing Bcl-2, and Jurkat cells. Optimal conditions for peptide delivery and anti-CD3 concentration were determined in preliminary experiments. Peptide delivery in the lipid bilayer is 100%, whereas the penetration of peptide 2 into cells is much less, accounting for the lesser effect in cells. Therefore, a higher concentration of peptide (60 μM) was delivered into cells using the Chariot delivery reagent. Cytoplasmic Ca^2+ concentration was continuously measured at a single-cell level by digital imaging during anti-CD3 treatment. Representative Ca^2+ traces from Bcl-2(+) WEHI7.2 cells are shown in FIG. 6A, and the average Ca^2+ elevation induced by anti-CD3 in seven experiments is summarized in FIG. 6B. Observed variations in lag phase are at least partially attributable to the fact that lymphocytes are only loosely adherent to coverslips and thus rapid buffer exchange is not possible during antibody additions. Peptide 2 enhanced anti-CD3-induced Ca^2+ elevation in Bcl-2(+) WEHI7.2 cells by 40%. […] Peptide 2 had no effect on Ca^2+ elevation when added to the cells in the absence of the Chariot reagent. […] The low Bcl-2 level in Jurkat cells and the barely detectable endogenous Bcl-2 in Bcl-2(−) WEHI7.2 cells are consistent with the higher amplitude and longer duration of the Ca^2+ response in these cells in contrast to Bcl-2(+) WEHI7.2 cells (compare FIGS. 6A and 6B to FIGS. 6C and 6D). Thus, peptide 2 modulated anti-CD3-induced Ca^2+ elevation in both Bcl-2(+) WEHI7.2 cells and Jurkat cells, consistent with the ability of peptide 2 to disrupt Bcl-2-IP3R interaction.
# [4] = test system: Jurkat cells; test: anti-CD3-induced Ca2+ elevation by digital imaging; format: cell-based
# Experimental: as §1, §2
# Bcl-2-IP3R interaction, sequence (P10415 whole entry): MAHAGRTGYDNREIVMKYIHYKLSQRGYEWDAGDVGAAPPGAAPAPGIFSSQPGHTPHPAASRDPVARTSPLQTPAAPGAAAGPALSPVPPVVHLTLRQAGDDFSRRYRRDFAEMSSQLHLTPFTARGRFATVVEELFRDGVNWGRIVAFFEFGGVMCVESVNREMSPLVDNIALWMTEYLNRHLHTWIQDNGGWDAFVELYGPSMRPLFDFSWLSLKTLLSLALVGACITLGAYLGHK
sequence,measurement,setting,value
"NVYTEIKCNSLLPLDDIVRV (listed as Homo sapiens) [peptide 2, 20 amino acid peptide, aa 1389-1408 of IP3R subdomain 3a1]",inhibition of Bcl-2-IP3R coimmunoprecipitation,[1],consistently inhibited
same,IP3R open probability,"[2]; 10 μM peptide after 0.1 μM purified Bcl-2, Bcl-2 alone 0.018",0.16
same,reversal of Bcl-2's inhibitory effect on channel activity,[2]; after 0.1 μM purified Bcl-2,reversed
same,enhancement of anti-CD3-induced Ca2+ elevation,[3]; Bcl-2(+) WEHI7.2 cells,40%
same,effect on anti-CD3-induced Ca2+ elevation,[3]; Bcl-2(−) WEHI7.2 cells,did not have a significant effect
same,enhancement of anti-CD3-induced Ca2+ elevation,[4]; Jurkat cells with endogenous Bcl-2 knocked down by siRNA,did not enhance
same,enhancement of anti-CD3-induced Ca2+ elevation,"[4]; Jurkat cells, 60 μM peptide with Chariot reagent",significantly enhanced
same,effect on intracellular Ca2+ levels,[4]; absence of anti-CD3 stimulation (data not shown),did not affect
same,effect on Ca2+ elevation,[4]; peptide added in the absence of Chariot reagent,no effect
